Measurements published in US7279494B2, “Antimicrobial [3.1.0] bicyclohexylphenyl-oxazolidinone derivatives and analogues” (Pfizer Inc., priority 2003, dated 2007).
≈ marks a conversion by molar mass, not a printed value.

Assays:
S. aureus UC9213 = assay: MIC by standard agar dilution, S. aureus UC9213; assay type: cell-based; conditions: incubated overnight at 35° C.; for MIC: Staphylococcus aureus, UC9213, Mueller Hinton agar
Outline: (§1)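 Agar dilution MIC: 2-fold serial compound dilutions in Mueller Hinton agar, spot-inoculated with ~10^4–10^5 cells from 0.5 McFarland suspensions diluted 1:20 in TSB. Incubated overnight at 35 °C; MIC (μg/mL) taken as lowest concentration preventing visible growth.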

H. influenzae 30063 = assay: MIC by standard agar dilution, H. influenzae 30063; assay type: cell-based; conditions: Mueller Hinton agar, incubated overnight at 35° C.; for MIC: Haemophilus influenzae, 30063, agar dilution, read-out: H. influenzae 30063 MIC; for H. influenzae 30063 MIC: agar dilution
Outline: as §1

S. pneumoniae UC9912 = assay: MIC by standard agar dilution, S. pneumoniae UC9912; assay type: cell-based; conditions: incubated overnight at 35° C.; for MIC: Streptococcus pneumoniae, UC9912, Mueller Hinton agar
Outline: as §1

SMILES	MIC (S. aureus UC9213)	MIC (H. influenzae 30063)	melting point	MIC (S. pneumoniae UC9912)	H. influenzae 30063 MIC (H. influenzae 30063)	S. aureus UC9213 MIC (S. aureus UC9213; Mueller Hinton agar)	S. pneumoniae UC9912 MIC (S. pneumoniae UC9912; Mueller Hinton agar)
CC(=O)NC[C@H]1CN(c2ccc([C@H]3[C@@H]4CSC[C@@H]43)c(F)c2)C(=O)O1 [Example 1, N-[((5S)-3-{3-fluoro-4-[exo-(1R,5S)-3-thiabicyclo[3.1.0]hex-6-yl]phenyl}-2-oxo-1,3-oxazolidin-5-yl)methyl]acetamide]	4 µg/mL (≈ 11.4 µM)	≤ 32 µg/mL	177 to 178 °C	1 µg/mL (≈ 2.85 µM)	–	–	–
CC(=O)NC[C@H]1CN(c2ccc([C@H]3[C@@H]4CN(C(=O)CO)C[C@@H]43)cc2)C(=O)O1 [Example 17, N-[((5S)-3-{4-[exo-(1R,5S)-3-glycoloyl-3-azabicyclo[3.1.0]hex-6-yl]phenyl}-2-oxo-1,3-oxazolidin-5-yl)methyl]acetamide]	4 µg/mL (≈ 10.7 µM)	8 µg/mL (≈ 21.4 µM)	–	2 µg/mL (≈ 5.36 µM)	–	–	–
CC(=O)NC[C@H]1CN(c2ccc([C@H]3[C@@H]4CN(C(=N)N)C[C@@H]43)c(F)c2)C(=O)O1 [Example 72, N-{[(5S)-3-(4-{exo-(1R,5S)-3-[amino(imino)methyl]-3-azabicyclo[3.1.0]hex-6-yl}-3-fluorophenyl)-2-oxo-1,3-oxazolidin-5-yl]methyl}acetamide]	32 µg/mL (≈ 85.2 µM)	64 µg/mL (≈ 170 µM)	–	8 µg/mL (≈ 21.3 µM)	–	–	–
CCC(=O)NC[C@H]1CN(c2ccc([C@H]3[C@@H]4CN(C(=O)NC)C[C@@H]43)c(F)c2)C(=O)O1 [Example 24, exo-(1R,5S)-6-(4-{(5S)-5-[(propanoylamino)methyl]-2-oxo-1,3-oxazolidin-3-yl]-2-fluorophenyl)-3-azabicyclo[3.1.0]hexane-3-methylcarboxamide]	4 µg/mL (≈ 9.89 µM)	16 µg/mL (≈ 39.6 µM)	–	2 µg/mL (≈ 4.95 µM)	–	–	–
CC(=O)NC[C@H]1CN(c2ccc([C@H]3[C@@H]4CN(C(=O)[C@H]5CCCO5)C[C@@H]43)c(F)c2)C(=O)O1 [Example 41, N-[((5S)-3-{3-fluoro-4-[exo-(1R,5S)-3-(tetrahydrofuran-2-(R)-carbonyl)-3-azabicyclo[3.1.0]hex-6-yl]phenyl}-2-oxo-1,3-oxazolidin-5-yl)methyl]acetamide]	4 µg/mL (≈ 9.27 µM)	32 µg/mL (≈ 74.2 µM)	–	2 µg/mL (≈ 4.64 µM)	–	–	–
NC(=O)[C@H]1CN(c2ccc([C@H]3[C@@H]4CS(=O)(=O)C[C@@H]43)c(F)c2)C(=O)O1 [Example 20, (5R)-3-{4-[exo-(1R,5S)-3,3-dioxido-3-thiabicyclo[3.1.0]hex-6-yl]-3-fluorophenyl}-2-oxo-1,3-oxazolidine-5-carboxamide]	2 µg/mL (≈ 5.64 µM)	> 64 µg/mL	–	2 µg/mL (≈ 5.64 µM)	>64 µg/mL	–	–
CC(=O)NC[C@H]1CN(c2cc(F)c([C@H]3[C@@H]4C[S+]([O-])C[C@@H]43)c(F)c2)C(=O)O1 (stereo partly drawn) [Example 12, N-[((5S)-3-{3,5-difluoro-4-[exo-(1R,5S)-3-oxido-3-thiabicyclo[3.1.0]hex-6-yl]phenyl}-2-oxo-1,3-oxazolidin-5-yl)methyl]acetamide]	–	–	–	–	4 µg/mL	1 µg/mL	0.5 µg/mL
CC(=O)NC[C@H]1CN(c2ccc([C@H]3[C@@H]4C[S+]([O-])C[C@@H]43)c(F)c2)C(=O)O1 (stereo partly drawn) [Example 2, N-[((5S)-3-{3-fluoro-4-[exo-(1R,5S)-3-oxido-3-thiabicyclo[3.1.0]hex-6-yl]phenyl}-2-oxo-1,3-oxazolidin-5-yl)methyl]acetamide]	2 µg/mL (≈ 5.46 µM)	2 µg/mL (≈ 5.46 µM)	–	0.25 µg/mL (≈ 0.682 µM)	–	–	–
CC(=O)NC[C@H]1CN(c2ccc([C@H]3[C@@H]4CN(C(=O)c5c[nH]cn5)C[C@@H]43)c(F)c2)C(=O)O1 [Example 39, N-[((5S)-3-{3-fluoro-4-[exo-(1R,5S)-3-(1H-imidazole-4-carbonyl)-3-azabicyclo[3.1.0]hex-6-yl]phenyl}-2-oxo-1,3-oxazolidin-5-yl)methyl]acetamide]	0.5 µg/mL (≈ 1.17 µM)	4 µg/mL (≈ 9.36 µM)	–	1 µg/mL (≈ 2.34 µM)	–	–	–
CC(=O)NC[C@H]1CN(c2ccc([C@H]3[C@@H]4CN(C(=O)[C@@H](O)CO)C[C@@H]43)c(F)c2)C(=O)O1 [Example 9, N-[((5S)-3-{3-fluoro-4-[exo-(1R,5S)-3-((2S)-2,3-dihydroxypropanoyl)-3-azabicyclo[3.1.0]hex-6-yl]phenyl}-2-oxo-1,3-oxazolidin-5-yl)methyl]acetamide]	8 µg/mL (≈ 19 µM)	8 µg/mL (≈ 19 µM)	–	1 µg/mL (≈ 2.37 µM)	–	–	–
CC(=O)NC[C@H]1CN(c2ccc([C@H]3[C@@H]4CS(=O)(=O)C[C@@H]43)c(F)c2)C(=O)O1 [Example 3, N-[((5S)-3-{4-[exo-(1R,5S)-3,3-dioxido-3-thiabicyclo[3.1.0]hex-6-yl]-3-fluorophenyl}-2-oxo-1,3-oxazolidin-5-yl)methyl]acetamide]	2 µg/mL (≈ 5.23 µM)	4 µg/mL (≈ 10.5 µM)	–	0.25 µg/mL (≈ 0.654 µM)	–	–	–
